Results as given in US4833136A, “Pharmaceutically useful pyrazolo[4,3-b]pyridines” (Beecham Group p.l.c., priority 1986, dated 1989).

What was measured:
[1] = tested on: mouse sensitized to oxazolone; assay: Mouse oxazolone screen: topical anti-inflammatory activity in the mouse sensitized to oxazolone; assay type: in vivo; settings: oxazolone challenge 100 μg/ear, ears weighed 24 hours later
Procedure: Compounds were tested for topical anti-inflammatory activity in a screen using the mouse sensitized to oxazolone, by a method modified from that of Dietrich and Hess [Int. Arch. Allergy, 38, 246 (1970)].
Mice were sensitized with oxazolone (2 mg in 20 μl EtOH) on a shaved area of the abdomen. 5 days later, the animals received 10 μl THF/MeOH (1:1 v/v) on the right ear and the test compound in the same solvent on the left ear. 1 hour later, the animals were challenged with 100 μg oxazolone in 10 μl acetone on each ear. Ear weights were measured 24 hours later. Percentage inhibition of the inflammatory swelling refers to the increase in weight of left ears (oxazolone plus compound in THF/MeOH) compared to untreated negative controls, as a proportion of the increase in weight of right ears (oxazolone plus THF/MeOH) only similar controls.

[2] = tested on: cantharidin mouse ear; assay: Mouse cantharidin screen: topical anti-inflammatory activity, cantharidin mouse ear; assay type: in vivo; settings: cantharidin 25 μg/ear, ears weighed after 24 hours
Procedure: Compounds were tested for topical anti-inflammatory activity in a cantharidin mouse ear screen, modified from Swingle, Reiter and Schwartzmiller [Arch. int. Pharmacodyn. 254, 168-176, 1976].
25 μg cantharidin (in 10 μl THF) was applied to both ears. Compound, in the same solvent, was applied at the same time, to the left ear only. Ears were weighed after 24 hours. Percentage inhibition of the acute inflammatory swelling refers to the increase in weight of left ears (cantharidin plus compound) compared to solvent-treated negative controls, as a proportion of the increase in weight of right ears (cantharidin alone) over similar controls.

[3] = dose 200 μg/ear 1 hour before challenge

Cc1cc(NCCO)c2[nH]nc(Br)c2n1 [Compound 1, 3-Bromo-7-(2-hydroxyethylamino)-5-methyl-1H-pyrazolo-[4,3-b]pyridine]
% Inhibition of the inflammatory swelling [1, 3]: 22%

Cc1cc(NCCO)c2[nH]nc(C)c2n1 [Compound 2, 7-(2-Hydroxyethylamino)-3,5-dimethyl-1H-pyrazolo[4,3-b]pyridine]
% Inhibition of the acute inflammatory swelling ([2]; dose 500 μg/ear): 86%
% Inhibition of the inflammatory swelling [1, 3]: 52%

Cc1cc(NCCO)c2[nH]nc(-c3ccccc3)c2n1 [Compound 3, 7-(2-Hydroxyethylamino)-5-methyl-3-phenyl-1H-pyrazolo[4,3-b]pyridine]
% Inhibition of the acute inflammatory swelling ([2]; dose 500 μg/ear): 98%
% Inhibition of the inflammatory swelling ([1]; dose 500 μg/ear 1 hour before challenge): 52%

C=CCNc1cc(C)nc2c(C)n[nH]c12 [Compound 4, 7-Allylamino-3,5-dimethyl-1H-pyrazolo[4,3-b]pyridine]
% Inhibition of the acute inflammatory swelling ([2]; dose 200 μg/ear): 83%

C=CCNc1cc(C)nc2c(-c3ccccc3)n[nH]c12 [Compound 5, 7-Allylamino-5-methyl-3-phenyl-1H-pyrazolo[4,3-b]pyridine]
% Inhibition of the acute inflammatory swelling ([2]; dose 500 μg/ear): 90%

Cc1cc(NCCO)c2[nH]nc(-c3ccc(Cl)cc3)c2n1 [Compound 6, 3-(4-Chlorophenyl)-7-(2-hydroxyethylamino)-5-methyl-1H-pyrazolo[4,3-b]pyridine]
% Inhibition of the acute inflammatory swelling ([2]; dose 200 μg/ear): 68%
% Inhibition of the inflammatory swelling [1, 3]: 31%

Cc1cc(NCC(C)C)c2[nH]nc(-c3ccccc3)c2n1 [Compound 7, 7-Isobutylamino-5-methyl-3-phenyl-1H-pyrazolo[4,3-b]pyridine]
% Inhibition of the acute inflammatory swelling ([2]; dose 500 μg/ear): 39%

Cc1cc(NCCO)c2nn(-c3ccccc3)c(C)c2n1 [Compound 13, 7-(2-Hydroxyethylamino)-3,5-dimethyl-2-phenylpyrazolo[4,3-b]pyridine]
% Inhibition of the acute inflammatory swelling ([2]; dose 200 μg/ear): 43%
